Results as given in patent publication US9980943B2, “Methods of treating muscular dystrophy” (BOARD OF REGENTS OF THE NEVADA SYSTEM OF HIGHER EDUCATION, …, priority 2013, dated 2018).

Tests used:
Assay type in all cases: cell-based, mouse
[1] = system: α7 integrin (LacZ reporter in α7βgal+/− myoblasts); assay: Myoblast α7+/LacZ integrin FDG assay (Burkin assay in myoblasts, 96-well); conditions: α7+/LacZ myoblasts, 96-well
[2] = system: β-galactosidase in CMV-LacZ C2C12 myotubes; assay: CMV-LacZ secondary screen in C2C12 myotubes (β-Gal stabilizing assay); conditions: for CMV-LACZ in Myotubes, signal relative to DMSO: C2C12 CMV-LacZ myotubes, fold relative to DMSO; for CMV-LACZ in Myotubes (β-galactosidase activity relative to DMSO): CMV-LacZ C2C12 myotubes, 96-well format
Method in brief: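 First, C2C12 myoblasts were transfected with a linearized CMV-LACZ vector and clonal lines selected by FDG β-gal assay. Then cells were exposed to compounds at 0.5, 1, 5, 10, 20 and 40 μM in 96-well format, two replicates each, and β-gal measured.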

[3] = system: α7 integrin (LacZ reporter in α7+/LacZ myotubes); assay: Myotube α7 integrin FDG assay (Burkin assay in myotubes, 96-well); conditions: myotubes

Row | SMILES | Burkin Assay in Myoblasts, value relative to DMSO ([1]; 0.5 uM) | Burkin Assay in Myoblasts, value relative to DMSO ([1]; 1 uM) | Burkin Assay in Myoblasts, value relative to DMSO ([1]; 5 uM) | Burkin Assay in Myoblasts, value relative to DMSO ([1]; 10 uM) | Burkin Assay in Myoblasts, value relative to DMSO ([1]; 20 uM) | Burkin Assay in Myoblasts, value relative to DMSO ([1]; 40 uM) | CMV-LACZ in Myotubes, signal relative to DMSO ([2]; 5 uM) | CMV-LACZ in Myotubes, signal relative to DMSO ([2]; 10 uM) | CMV-LACZ in Myotubes, signal relative to DMSO ([2]; 20 uM) | CMV-LACZ in Myotubes, signal relative to DMSO ([2]; 40 uM) | Burkin Assay in Myotubes (signal relative to DMSO) ([3]; 0.5 uM) | Burkin Assay in Myotubes (signal relative to DMSO) ([3]; 1 uM) | Burkin Assay in Myotubes (signal relative to DMSO) ([3]; 5 uM) | Burkin Assay in Myotubes (signal relative to DMSO) ([3]; 10 uM) | Burkin Assay in Myotubes (signal relative to DMSO) ([3]; 20 uM) | Burkin Assay in Myotubes (signal relative to DMSO) ([3]; 40 uM) | CMV-LACZ in Myotubes (β-galactosidase activity relative to DMSO) ([2]; 5 uM) | CMV-LACZ in Myotubes (β-galactosidase activity relative to DMSO) ([2]; 10 uM) | CMV-LACZ in Myotubes (β-galactosidase activity relative to DMSO) ([2]; 20 uM) | CMV-LACZ in Myotubes (β-galactosidase activity relative to DMSO) ([2]; 40 uM) | other results
1 | COC(=O)Cc1c(O)ccn(Cc2ccc3c(c2)OCO3)c1=O [MLS000721525-01] | 1.086 | 1.086 | 0.9834 | 1.01 | 0.9936 | 0.985 | 0.866 | 1.036 | 0.8409 | 0.9127 | 0.6646 | 0.9136 | 0.6693 | 0.9806 | 0.8968 | 1.047 | – | – | – | – | –
2 | Cc1cc(C)cc(-n2nnc(C(=O)NCc3ccccc3Cl)c2N)c1 [MLS000094770-01] | 1.021 | 0.9676 | 0.9491 | 0.9866 | 0.7999 | 0.6762 | 0.8081 | 0.9406 | 0.9412 | 0.8421 | 1.14 | 1 | 1.317 | 0.823 | 0.8175 | 0.7119 | – | – | – | – | –
3 | C/C(=N\Nc1nncc2ccccc12)c1cccc(OC(F)F)c1 [MLS001175556-01] | 0.92 | 0.8625 | 0.9202 | 0.8856 | 0.8956 | 0.8018 | – | – | – | – | 0.949 | 1.028 | 1.1 | 0.9013 | 0.901 | 0.7514 | 1.113 | 1.053 | 0.9158 | 1.103 | –
4 | CCNC(=O)COC(=O)c1cc(-c2ccco2)nc2ccccc12 [MLS000772580-01] | 0.8487 | 0.9736 | 0.8554 | 0.8513 | 0.7938 | 0.7251 | 0.8986 | 1.0933 | 1.029 | 1.088 | 0.851 | 0.8999 | 1.323 | 0.9474 | 0.9413 | 0.8535 | – | – | – | – | –
5 | O=Cc1cn(Cc2ccc(F)cc2Cl)c2ccccc12 [MLS000676974-01] | 1.105 | 1.137 | 0.99 | 1.099 | 0.6673 | 0.5184 | 1.077 | 0.4574 | 1.083 | 0.46 | 0.9171 | 0.9021 | 0.7009 | 0.5994 | 0.9758 | 0.5447 | – | – | – | – | –
6 | CS(=O)(=O)N(Cc1ccc(C(=O)NC2CCCC2)cc1)c1ccccc1 [MLS000714175-01] | 0.5383 | 0.975 | 1.1625 | 1.06 | 0.9936 | 0.9626 | – | – | – | – | 1.086 | 1.061 | 1.131 | 1.013 | 1.119 | 1.022 | 0.9319 | 1.097 | 1.124 | 0.971 | –
7 | CCCC(=O)Nc1ccccc1NC(=O)c1ccc(OCC)cc1 [MLS000685139-01] | 0.8234 | 0.6285 | 0.8416 | 0.776 | 0.9893 | 0.9848 | – | – | – | – | 0.8703 | 0.9202 | 1.128 | 1.24 | 1.102 | 1.267 | 0.9362 | 1.036 | 1.031 | 0.9387 | –
8 | S=c1[nH]nc(Cn2cnc3ccccc32)n1-c1ccccc1 [MLS000707281-01] | 0.9507 | 0.9756 | 0.8935 | 0.8854 | 0.8359 | 0.7969 | – | – | – | – | 1.011 | 0.6537 | 1.059 | 0.7505 | 1.156 | 1.141 | 0.8706 | 0.9255 | 0.9474 | 0.9526 | –
9 | COc1ccc(CNC(=O)CCN2C(=O)c3ccccc3C2=O)cc1 [MLS001200980-01] | 0.9918 | 0.9255 | 1.055 | 0.9544 | 0.9561 | 0.9201 | 0.8782 | 0.9568 | 0.9272 | 1.0886 | 1.0669 | 1.022 | 1.121 | 1.216 | 1.015 | 0.9712 | – | – | – | – | –
10 | Cc1ccccc1OCC(=O)Nc1nnc(-c2ccco2)s1 [MLS000333610-01] | – | – | – | – | – | – | 0.832 | 0.7867 | 0.9429 | 0.9948 | – | – | – | – | – | – | – | – | – | – | Burkin Assay in Myoblasts, signal relative to DMSO ([1]; 0.5 uM): 0.8664; Burkin Assay in Myoblasts, signal relative to DMSO ([1]; 1 uM): 0.9253; Burkin Assay in Myoblasts, signal relative to DMSO ([1]; 5 uM): 1.048; Burkin Assay in Myoblasts, signal relative to DMSO ([1]; 10 uM): 0.9188; Burkin Assay in Myoblasts, signal relative to DMSO ([1]; 20 uM): 0.7975; Burkin Assay in Myoblasts, signal relative to DMSO ([1]; 40 uM): 0.7794; Burkin Assay in Myotubes, α7 integrin LacZ reporter signal relative to DMSO ([3]; 0.5 uM): 0.986; Burkin Assay in Myotubes, α7 integrin LacZ reporter signal relative to DMSO ([3]; 1 uM): 1.039; Burkin Assay in Myotubes, α7 integrin LacZ reporter signal relative to DMSO ([3]; 5 uM): 1.003; Burkin Assay in Myotubes, α7 integrin LacZ reporter signal relative to DMSO ([3]; 10 uM): 0.9932; Burkin Assay in Myotubes, α7 integrin LacZ reporter signal relative to DMSO ([3]; 20 uM): 0.8742; Burkin Assay in Myotubes, α7 integrin LacZ reporter signal relative to DMSO ([3]; 40 uM): 0.9096
